Patent US20080299210A1, “STABLE NANOSIZED AMORPHOUS DRUG” (priority 2006, published 2008)

Tests used:
[1] = Differential scanning calorimetry (DSC) of drug samples; format: physicochemical; conditions: for Tg of drug / ΔHc: DSC scanning rate 10° C./min
Method: The amorphous state of the amorphous drug core is determined by subjecting a population of nanoparticles that comprise one or more nanoparticles that comprise the recited amorphous drug core to differential scanning calorimetry (DSC). In an embodiment, a DSC method according to the invention used a Perkin-Elmer DSC-7 or a Diamond DSC calorimeter applied for the measurement of specific transition temperatures of tested samples. […] The instrument was calibrated using indium, tin and zinc certified reference materials (CRMs) The amorphous state of the amorphous drug core, as measured by DSC is expressed as a weight fraction of the weight of amorphous material in the amorphous drug core to the total weight of the amorphous drug core, expressed as an average value across the population of nanoparticles being measured. For instance, if a population of nanoparticles was measured using DSC, and the amorphous state was determined to be a particular value for the population, that value would be considered the average amorphous state for each nanoparticle within the population. An inventive amorphous drug core may contain a small amount of crystalline drug. […] “Glass forming ability” or “GFA” means the ratio of Tg to Tm. It can be calculated as: […] is a measure of the tendency of an amorphous drug to remain in an amorphous state. […] “Glass transition temperature” or “Tg” means that temperature at which a material transitions to a glassy state from a liquid state, as measured at standard atmospheric pressure. […] C. […] C.

Water solubility of drug = format: physicochemical; conditions: 25 °C
Method: “Water solubility” means a measure of the maximum possible concentration of a drug dissolved in water. The water temperature may be specified; in an embodiment water solubility is determined at 25 Deg. C. Units of measurement of water solubility are typically mass/volume, such as mg/ml. The water solubility of drug useful in the practice of the present invention is less than or equal to about 1 mg/ml at 25 Deg. C.; preferably less than or equal to about 0.1 mg/ml at 25 Deg. C.; more preferably less than or equal to about 0.01 mg/ml at 25 Deg. C., still more preferably less than or equal to about 1 microgram/ml at 25 Deg. C.

Row | Tg of drug [1] [°C] | ΔHc [1] [J/g] | glass forming ability (GFA), Tg/Tm [1] | Compound | other results
1 | 87.07 | 0 | – | O=C(NN1CCCCC1)c1nn(-c2ccc(Cl)cc2Cl)c2c1CCC/C2=C\c1ccc(F)cc1 [Amorphous COMPOUND 1] | –
2 | 53.77 | 10.35 | – | CC(C)(C)c1ccc(C(O)CCCN2CCC(C(O)(c3ccccc3)c3ccccc3)CC2)cc1 (stereo not shown) [Amorphous terfenadine, terfenadine] | crystallinity (crystalline portion) by DSC ([1]; relative to original crystallinity): less than 20%
3 | – | – | 0.81 | O=C(NN1CCCCC1)c1nn(-c2ccc(Cl)cc2Cl)c2c1CCC/C2=C\c1ccc(F)cc1 [COMPOUND 1] | solubility (Water solubility of drug): ≤ 0.2 ng/mL
4 | – | 77.64 | – | O=C(NN1CCCCC1)c1nn(-c2ccc(Cl)cc2Cl)c2c1CCC/C2=C\c1ccc(F)cc1 [Crystalline COMPOUND 1] | –
5 | – | 108.63 | – | CC(C)(C)c1ccc(C(O)CCCN2CCC(C(O)(c3ccccc3)c3ccccc3)CC2)cc1 (stereo not shown) [Crystalline terfenadine, terfenadine] | –
6 | – | – | 0.77 | CC(C)(C)c1ccc(C(O)CCCN2CCC(C(O)(c3ccccc3)c3ccccc3)CC2)cc1 (stereo not shown) [terfenadine, Terfenadine] | –
